From BindingDB's records for doi:10.1016/j.bmcl.2005.02.039 (National Institute of Pharmaceutical Education and Research …, 2005)

Assay: Anti-oxidant activity in DPPH radicak scavenging assay; n=3-4

IC50 [µM]	SMILES
15.5	COc1cc(C=Cc2cc(C=Cc3ccc(O)cc3)n[nH]2)ccc1O [4-((E)-2-{5-[(E)-2-(4-Hydroxy-phenyl)-vinyl]-1H-pyrazol-3-yl}-vinyl)-2-methoxy-phenol]
19	COc1cc(/C=C/c2cc(/C=C/c3ccc(O)cc3)on2)ccc1O [4-((E)-2-{5-[(E)-2-(4-Hydroxy-phenyl)-vinyl]-isoxazol-3-yl}-vinyl)-2-methoxy-phenol]
32.4	Oc1ccc(/C=C/c2cc(/C=C/c3ccc(O)cc3)[nH]n2)cc1 [4-((E)-2-{3-[(E)-2-(4-hydroxyphenyl)vinyl]-1H-pyrazol-5-yl}vinyl)phenol]
